{
  "source": "patent US11708338B2",
  "about": "“Substituted phenyl sulfonyl phenyl triazole thiones and uses thereof” (Neuropore Therapies, Inc., priority 2017, dated 2023)",
  "assay_type_in_all_cases": "in vivo, mouse",
  "key": {"[1]": {"system": "dopaminergic (DAT) transporter", "assay": "DAT IHC immunolabeling in striatum, striatal-to-reference ratio", "settings": "L61 ASYN transgenic mice, 3 months", "experimental": "The harvested brain tissues were drop fixed using 4% PFA and sectioned on a vibratome, and representative sections corresponding to the striatum and cerebellum were assessed for DAT with IHC staining.\nImmunolabeling studies of DAT were conducted using a monoclonal antibody (1:500; MAB369; Millipore, Temecula, Calif.) and a biotinylated secondary antibody (1:100; BA4000, Vector Labs) and analysis was performed on blindcoded sections from Line 61 transgenic and non-transgenic mice. Slides were digitized using a high resolution automated Nanozoomer slide scanner (Hamamatsu Corp.). Digitized images were analyzed using Halo (Indica Labs) image analysis software package by placing an ROI frame within the dorsal striatum and another within a separate reference brain region (for normalization of DAT signal). A thresholding algorithm was defined and then applied equally to all images to determine the average optical density of DAT immunolabeling across each ROI The results of the analysis were then exported for graphing and statistical analysis and the striatal DAT:cortical (reference region) DAT optical densities ratio was calculated for each subject.\nQuantification of DAT density was carried out by calculating the immunofluorescence in striatal sections against that in cerebellum sections to derive a striatal-to-reference ratio."}, "[2]": {"system": "Translocator Protein (18 kDa) (TSPO)", "assay": "TSPO immunofluorescence in cortex of L41 APP transgenic mice", "settings": "5 mg/kg daily i.p.", "experimental": "Neuroinflammation is associated with increased expression of the 18-kDa translocator protein (TSPO), which is present on the mitochondria of activated microglia, astroglia and macrophages (Crawshaw and Robertson 2017). The effects of Compound 1 on TSPO expression were assessed in both L41 APP transgenic and non-transgenic mice in a 1 month administration study. L41 APP transgenic mice (36 total mice, n=8-11 mice per treatment group) were injected (i.p.) daily with 5 mg/kg of Compound 1 or a vehicle control (5% DMSO+20% Cremphor EL+0.9% normal saline) for […]. Non-transgenic mice (18 total mice, n=8-11 mice per treatment group) were used as a control and were injected daily (i.p.) with 10 mg/kg of Compound 1 (data not shown) or a vehicle control (5% DMSO+20% Cremphor EL+0.9% normal saline) for 1 month. After 30 days, the mice were sacrificed, and immunofluoresence (IF) detection of TSPO were assessed in the harvested brain tissues.\nThe harvested brain tissues were drop fixed using 4% PFA and sectioned on a vibratome, and representative sections corresponding to the neuropil of cortex were assessed for TSPO with standard immunofluorescence (IF) staining."}, "monomeric ASYN": {"system": "monomeric ASYN", "assay": "ProteinSimple western biochemical evaluation of monomeric ASYN in cytosolic fraction of brain homogenates", "settings": "L61 ASYN transgenic mice, 1, 5 or 10 mg/kg per day i.p., 1 month", "experimental": "Multiple in vivo administration studies of Compound 1 were carried out in the Line 61 (L61) mThy1-alpha-synuclein transgenic mouse model of Parkinson's disease (PD). The mThy1-alpha-synuclein transgenic mouse model overexpresses wild-type human ASYN under the Thy-1 promoter studies (commonly referred to as Line 61 transgenic mice; Rockenstein et al., 2002). […]\nAlpha-synuclein (ASYN) is a neuronal protein whose dysregulation has been implicated in the pathogenesis of PD. The effects of Compound 1 on alpha-synuclein aggregation were assessed in both L61 ASYN transgenic and non-transgenic mice in a 1 month administration study. […] At the end of one month, the mice were sacrificed, and immunohistochemical (IHC) detection of total alpha-synuclein deposits, insoluble alpha-synuclein deposits (PK+resistant), microtubule-associated protein 1A/1B-light chain 3 (LC3), and monomeric alpha-synuclein levels were assessed in the harvested brain tissues.\nBiochemical evaluations were conducted using a ProteinSimple© western biochemical evaluation. Briefly, samples were mixed with pre-calculated volumes of 0.1×Sample Buffer and 5×Fluorescent Master Mix to make a final sample concentration of 0.4 mg/mL in 10 μL solution for signal optimization and evaporation reduction. […]"}, "L61 ASYN transgenic mice": {"system": "L61 ASYN transgenic mice", "assay": "Grip strength evaluation (motor performance), 3 month administration study", "settings": "5 mg/kg and 10 mg/kg i.p. daily, after 70 days of treatment", "experimental": "The effects of Compound 1 on the motor performance deficits (grip strength) and a marker of neuroinflammation (Translocator Protein (18 kDa)) were assessed in both L61 ASYN transgenic and non-transgenic mice in a 3 month administration study.\nCompound 1 was injected into L61 ASYN transgenic mice and non-transgenic control mice (i.p., once daily) at doses of 5 and 10 mg/kg for 3 months (79 total mice, n=14-17 mice per treatment group). The vehicle control consisted of a solution containing 5% DMSO+20% Cremphor EL+0.9% normal saline. The baseline grip strength of mice was evaluated prior to starting treatments for the 3 month study, and then re-evaluated following 70 days of treatment with vehicle or Compound 1 (5 or 10 mg/kg, i.p. daily).\nAt baseline, there was a statistically significant grip strength deficit in transgenic mice compared to non-transgenic mice. Treatment with Compound 1 (5 & 10 mg/kg) improved L61 ASYN transgenic grip strength deficits."}},
  "data": [
    {"smiles": "O=S(=O)(c1ccc(-n2cn[nH]c2=S)cc1)c1ccc(Cl)c(C(F)(F)F)c1", "note": "[Compound 1, 4-(4-((4-chloro-3-(trifluoromethyl)phenyl)sulfonyl)phenyl)-2,4-dihydro-3H-1,2,4-triazole-3-thione]", "values": [
      {"measurement": "striatal levels of DAT, staining intensity in representative images (FIG. 18) vs vehicle-treated L61 mice", "setting": "[1]; 5 mg/kg or 10 mg/kg daily", "value": "restoring striatal levels of DAT"},
      {"measurement": "DAT striatal-to-reference ratio, quantification (FIG. 19)", "setting": "[1]; 10 mg/kg dose", "value": "reduces the GFAP levels in a statistically significant manner"},
      {"measurement": "cortical TSPO level vs vehicle-treated Line 41 mice, quantification (FIG. 20)", "setting": "[2]", "value": "reduces the TSPO level in a statistically significant manner"},
      {"measurement": "cortical levels of monomeric ASYN in cytosolic fraction of brain homogenates", "setting": "monomeric ASYN", "value": "reduced"},
      {"measurement": "hippocampal levels of monomeric ASYN in cytosolic fraction of brain homogenates", "setting": "monomeric ASYN", "value": "reduced"},
      {"measurement": "grip strength vs vehicle-treated transgenic mice", "setting": "L61 ASYN transgenic mice", "value": "higher grip strengths than vehicle-treated transgenic mice in a statistically significant manner"}
    ]}
  ]
}
